Experimental findings from patent US20260062412A1, “NITROGEN-CONTAINING HETEROCYCLIC COMPOUND HAVING MYT1 INHIBITORY ACTIVITY” (CHUGAI SEIYAKU KABUSHIKI KAISHA, priority 2023, published 2026) are described below.

For experiment [1], the target named is T1, MYT1 protein (Homo sapiens (Human), UniProt Q99640). Put plainly: Test for binding to ATP binding site of MYT1 (Kinase Tracer 178 / Eu-Anti-GST antibody TR-FRET). As to conditions: ATP binding site of MYT1, 30 minutes at room temperature. (In TR-FRET formats the signal depends on donor and acceptor labels being close together.)
T1 sequence (Q99640 whole entry): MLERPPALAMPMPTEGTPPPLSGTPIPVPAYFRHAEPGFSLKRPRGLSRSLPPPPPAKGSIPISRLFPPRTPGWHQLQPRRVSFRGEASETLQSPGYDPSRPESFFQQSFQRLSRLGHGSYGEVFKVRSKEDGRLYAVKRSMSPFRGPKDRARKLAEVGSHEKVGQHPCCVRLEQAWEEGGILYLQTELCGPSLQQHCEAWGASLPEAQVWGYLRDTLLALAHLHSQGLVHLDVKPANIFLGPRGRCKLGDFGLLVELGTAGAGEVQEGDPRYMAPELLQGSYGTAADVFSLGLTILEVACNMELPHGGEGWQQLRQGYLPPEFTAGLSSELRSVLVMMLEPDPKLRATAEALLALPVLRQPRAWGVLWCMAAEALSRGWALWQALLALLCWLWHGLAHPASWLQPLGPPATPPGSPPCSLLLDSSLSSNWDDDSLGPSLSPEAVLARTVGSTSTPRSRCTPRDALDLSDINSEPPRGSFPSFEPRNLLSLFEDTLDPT
The target in experiment [2] is T1, MYT1 protein. Description: MYT1 kinase activity inhibition test (ELISA, phosphorylation of Y15 of CDK1). Conditions: phosphorylation level of Y15 of CDK1 protein caused by MYT1 protein, 60 minutes. It counts as biochemical. Summed up: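 Recombinant human MYT1 (5 nM working solution) was incubated 60 min at room temperature with compound and ATP (83.3 μM working solution) on a CDK1-coated ELISA plate. CDK1 Y15 phosphorylation was detected with HRP anti-phosphotyrosine, read as A450 minus A590. Inhibition was normalised to no-compound (100%) and no-enzyme (0%) signals to derive IC50.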

The next experiment has as its system LU65. Description: Cytotoxicity test with pemetrexed upon addition of each example compound (CellTiter-Glo). It counts as cell-based, human. Conditions: combination with pemetrexed, LU65 cells, 7 days; maximum value, at the MYT1 inhibitor and pemetrexed concentrations. Summed up:
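LU65 lung cancer cells (RB1 S82* truncation, reduced RB1 function) in RPMI-1640/10% FBS were treated with pemetrexed plus each compound over concentration series, 7 days at 37 °C. ATP measured by CellTiter-Glo luminescence; survival relative to DMSO after blank subtraction, cytotoxicity = 100% minus survival.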
A general note: In ATP-based viability assays light output follows the ATP content of the culture.

As to `CC(C)Oc1cc2c(-c3ccc(F)c4[nH]ncc34)c(N)c(=O)[nH]c2c2cccnc12` [Compound C13, 3-Amino-4-(7-fluoro-1H-indazol-4-yl)-6-propan-2-yloxy-1H-1,7-phenanthrolin-2-one], on MYT1 protein [1], the IC50 (in general, the concentration needed to halve the response being measured) was 1.4 nM. Further, the half-maximal inhibitory concentration (IC50) at MYT1 protein [2] stood at 0.15 nM. In addition, in the experiment on LU65, the “Bliss Score (Max)” value is given as 62% and the “HSA Score (MAX)” value turned out to be 66%.

In turn, `Nc1c(-c2ccc(F)c3[nH]ncc23)c2cc(C3CCN(C4CCC4)CC3)c3ncccc3c2[nH]c1=O` [Compound C134, 3-Amino-6-(1-cyclobutylpiperidin-4-yl)-4-(7-fluoro-1H-indazol-4-yl)-1H-1,7-phenanthrolin-2-one] displayed a concentration for half-maximal inhibition (IC50) at MYT1 protein [1] of 3.6 nM. Moreover, at MYT1 protein [2], the 50% inhibitory concentration (IC50) is 7.6 nM. For the same molecule, in the experiment with LU65, the “Bliss Score (Max)” value is on record as 49% and the “HSA Score (MAX)” value was 60%.

On to `Nc1c(-c2cccc3[nH]ncc23)c2cc(C3CC3)c3ccncc3c2[nH]c1=O` [Compound Q1, 3-Amino-6-cyclopropyl-4-(1H-indazol-4-yl)-1H-1,9-phenanthrolin-2-one], for which the 50% inhibitory concentration (IC50) on MYT1 protein [1] was 9.3 nM. This molecule also came in with an IC50 against MYT1 protein [2] of 0.83 nM. Besides, in the experiment with LU65, the “Bliss Score (Max)” value worked out at 52% and the “HSA Score (MAX)” value worked out at 58%.

In turn, `Nc1c(-c2cccc3[nH]ncc23)c2cc(C3CC3)c3ncccc3c2[nH]c1=O` [Compound C185, 3-Amino-6-cyclopropyl-4-(1H-indazol-4-yl)-1H-1,7-phenanthrolin-2-one] gave a 50% inhibitory concentration (IC50) on MYT1 protein [1] of 2.8 nM. In addition, inhibition at MYT1 protein [2] was half-maximal at 0.31 nM (IC50). Also, in the experiment on LU65, the “Bliss Score (Max)” value is given as 55% and the “HSA Score (MAX)” value was 68%.

Consider `Nc1c(-c2ccc(F)c3[nH]ncc23)c2cc(C3CCN(C4CCOCC4)CC3)c3ncccc3c2[nH]c1=O` [Compound C137, 3-Amino-4-(7-fluoro-1H-indazol-4-yl)-6-[1-(oxan-4-yl)piperidin-4-yl]-1H-1,7-phenanthrolin-2-one], for which the figures for the half-maximal inhibitory concentration (IC50) on MYT1 protein [1] and at MYT1 protein [2] were 4.7 nM and 7.7 nM, respectively. Moreover, the “Bliss Score (Max)” value with LU65 was determined as 45%. For the same molecule, in the experiment with LU65, the “HSA Score (MAX)” value is given as 56%.

For the molecule `Nc1c(-c2ccc(F)c3[nH]ncc23)c2cc([C@H]3CC[C@H](O)CC3)c3ncccc3c2[nH]c1=O` [Compound C140, 3-Amino-4-(7-fluoro-1H-indazol-4-yl)-6-((1r, 4r)-4-hydroxycyclohexyl)-1H-1,7-phenanthrolin-2-one], the figures for the IC50 on MYT1 protein [1] and against MYT1 protein [2] were 1.7 nM and below 4.6 nM, respectively. For the same molecule, in the experiment with LU65, the “Bliss Score (Max)” value turned out to be 73%. Also, the “HSA Score (MAX)” value in the experiment with LU65 is 76%.

Molecule `Nc1c(-c2ccc(F)c3[nH]ncc23)c2cc(C3CCC(=O)CC3)c3ncccc3c2[nH]c1=O` [Compound C139, 3-Amino-4-(7-fluoro-1H-indazol-4-yl)-6-(4-oxocyclohexyl)-1H-1,7-phenanthrolin-2-one] gave a half-inhibitory concentration (IC50) at MYT1 protein [1] of 3.3 nM. For the same molecule, on MYT1 protein [2], the concentration for half-maximal inhibition (IC50) was 19 nM. Further, in the experiment on LU65, the “Bliss Score (Max)” value is 46% and the “HSA Score (MAX)” value turned out to be 54%.

`Cl.Nc1c(-c2cccc3[nH]ncc23)c2cc(C3CC3)c3cc(F)ccc3c2[nH]c1=O` [Compound B48, 3-Amino-6-cyclopropyl-8-fluoro-4-(1H-indazol-4-yl)-1H-benzo[h]quinolin-2-one; hydrochloride] registered a 50% inhibitory concentration (IC50) on MYT1 protein [1] of 18 nM. On MYT1 protein [2], this molecule came in with an IC50 of 2.5 nM. Besides, in the experiment on LU65, the “Bliss Score (Max)” value is reported as 66% and the “HSA Score (MAX)” value was 70%.

As for `Nc1c(-c2cccc3[nH]ncc23)c2cc(C3CC3)c3ccccc3c2[nH]c1=O` [Compound B49, 3-amino-6-cyclopropyl-4-(1H-indazol-4-yl)-1H-benzo[h]quinolin-2-one], the IC50 at MYT1 protein [1] was found to be 6.2 nM. At MYT1 protein [2], this molecule yielded an IC50 of 6.4 nM. Further, in the experiment on LU65, the “Bliss Score (Max)” value is recorded as 86% and the “HSA Score (MAX)” value is reported as 84%.

The molecule `CC(C)Oc1cc2c(-c3cc(F)c(F)c4[nH]ncc34)c(N)c(=O)[nH]c2c2cccnc12` [Compound C69, 3-Amino-4-(6,7-difluoro-1H-indazol-4-yl)-6-propan-2-yloxy-1H-1,7-phenanthrolin-2-one] displayed a half-maximal inhibitory concentration (IC50) at MYT1 protein [1] of 2 nM. The molecule further showed an IC50 against MYT1 protein [2] of 0.1 nM. Besides, in the experiment with LU65, the “Bliss Score (Max)” value amounted to 66% and the “HSA Score (MAX)” value is on record as 69%.

For the molecule `COc1cc2c(-c3cc(F)c(Cl)c4[nH]ncc34)c(N)c(=O)[nH]c2c2cccnc12` [Compound C76, 3-Amino-4-(7-chloro-6-fluoro-1H-indazol-4-yl)-6-methoxy-1H-1,7-phenanthrolin-2-one], the values for the half-maximal inhibitory concentration (IC50) on MYT1 protein [1] and against MYT1 protein [2] were 1.5 nM and 0.092 nM, respectively. The “Bliss Score (Max)” value in the experiment with LU65 is reported as 68%. The “HSA Score (MAX)” value in the experiment with LU65 was determined as 67%.

`Nc1c(-c2ccc(F)c3[nH]ncc23)c2cc(C3CC3)c3cnccc3c2[nH]c1=O.O=C(O)C(F)(F)F` [Compound P4, 3-Amino-6-cyclopropyl-4-(7-fluoro-1H-indazol-4-yl)-1H-1,8-phenanthrolin-2-one 2,2,2-trifluoroacetate]: the IC50 came out at 6.1 nM at MYT1 protein [1] and 5.9 nM at MYT1 protein [2]. Moreover, in the experiment on LU65, the “Bliss Score (Max)” value came out at 56%. In the experiment with LU65, the “HSA Score (MAX)” value was found to be 67%.

In the case of `Cc1cc2c(-c3ccc(F)c4[nH]ncc34)c(N)c(=O)[nH]c2c2cccnc12` [Compound C85, 3-amino-4-(7-fluoro-1H-indazol-4-yl)-6-methyl-1H-1,7-phenanthrolin-2-one], the concentration for half-maximal inhibition (IC50) on MYT1 protein [1] is 2.5 nM. Moreover, the concentration for half-maximal inhibition (IC50) against MYT1 protein [2] is 0.19 nM. Besides, in the experiment with LU65, the “Bliss Score (Max)” value is 59% and the “HSA Score (MAX)” value is recorded as 58%.

For `CCc1cc2c(-c3ccc(F)c4[nH]ncc34)c(N)c(=O)[nH]c2c2cccnc12` [Compound C86, 3-Amino-6-ethyl-4-(7-fluoro-1H-indazol-4-yl)-1H-1,7-phenanthrolin-2-one], the figures for the IC50 on MYT1 protein [1] and on MYT1 protein [2] were 4.6 nM and below 0.17 nM, respectively. Also, in the experiment with LU65, the “Bliss Score (Max)” value is recorded as 67%. In addition, in the experiment with LU65, the “HSA Score (MAX)” value came out at 71%.

For `Nc1c(-c2cccc3[nH]ncc23)c2cc(C3CC3)c3cnccc3c2[nH]c1=O` [Compound P1, 3-Amino-6-cyclopropyl-4-(1H-indazol-4-yl)-1H-1,8-phenanthrolin-2-one], the concentration for half-maximal inhibition (IC50) at MYT1 protein [1] is 1.8 nM. In addition, on MYT1 protein [2], the 50% inhibitory concentration (IC50) is 0.22 nM. In the experiment on LU65, the “Bliss Score (Max)” value came out at 49% and the “HSA Score (MAX)” value was determined as 55%.

`CC(=O)c1cc2c(-c3ccc(F)c4[nH]ncc34)c(N)c(=O)[nH]c2c2cccnc12` [Compound C200, 6-Acetyl-3-amino-4-(7-fluoro-1H-indazol-4-yl)-1H-1,7-phenanthrolin-2-one] yielded a half-inhibitory concentration (IC50) on MYT1 protein [1] of 2.4 nM. Besides, at MYT1 protein [2], the concentration for half-maximal inhibition (IC50) turned out to be 7 nM. For the same molecule, in the experiment with LU65, the “Bliss Score (Max)” value was determined as 44% and the “HSA Score (MAX)” value is on record as 56%.

In the case of `Nc1c(-c2cccc3[nH]ncc23)c2ccc3ccccc3c2[nH]c1=O` [Compound B46, 3-Amino-4-(1H-indazol-4-yl)-1H-benzo[h]quinolin-2-one], on MYT1 protein [1], the IC50 was 6.3 nM. Also, half-maximal inhibition against MYT1 protein [2] (IC50) was put at 6.4 nM. Moreover, in the experiment on LU65, the “Bliss Score (Max)” value was 52% and the “HSA Score (MAX)” value is on record as 65%.

At MYT1 protein [1], `CC#Cc1cc2c(-c3ccc(F)c4[nH]ncc34)c(N)c(=O)[nH]c2c2cccnc12` [Compound C90, 3-Amino-4-(7-fluoro-1H-indazol-4-yl)-6-prop-1-inyl-1H-1,7-phenanthrolin-2-one] gave a 50% inhibitory concentration (IC50) of 14 nM. The same molecule registered a half-maximal inhibitory concentration (IC50) at MYT1 protein [2] of 0.42 nM. In addition, in the experiment with LU65, the “Bliss Score (Max)” value is recorded as 50% and the “HSA Score (MAX)” value stood at 60%.

With `Cc1cc2c(-c3c(F)ccc4[nH]ncc34)c(N)c(=O)[nH]c2c2cccnc12` [Compound C155, 3-Amino-4-(5-fluoro-1H-indazol-4-yl)-6-methyl-1H-1,7-phenanthrolin-2-one], the values for the half-maximal inhibitory concentration (IC50) at MYT1 protein [1] and against MYT1 protein [2] were 2.3 nM and below 4.6 nM, respectively. Further, in the experiment on LU65, the “Bliss Score (Max)” value was 47%. For the same molecule, in the experiment with LU65, the “HSA Score (MAX)” value is reported as 61%.

As for `Nc1c(-c2cccc3[nH]ncc23)c2cc(C3CC3)c3ccc(F)cc3c2[nH]c1=O` [Compound B47, 3-Amino-6-cyclopropyl-9-fluoro-4-(1H-indazol-4-yl)-1H-benzo[h]quinolin-2-one], the IC50 on MYT1 protein [1] amounted to 10 nM; at MYT1 protein [2], 1.1 nM. Besides, in the experiment on LU65, the “Bliss Score (Max)” value is 54%. For the same molecule, the “HSA Score (MAX)” value in the experiment on LU65 amounted to 62%.

As for `Nc1c(-c2ccc(F)c3[nH]ncc23)c2cc(C3CCNC3)c3ncccc3c2[nH]c1=O.O=CO` (centres unmarked) [Compound C146, 3-Amino-4-(7-fluoro-1H-indazol-4-yl)-6-pyrrolidin-3-yl-1H-1,7-phenanthrolin-2-one; formate], the values for the IC50 at MYT1 protein [1] and against MYT1 protein [2] were 3.4 nM and 16 nM, respectively. The “Bliss Score (Max)” value in the experiment with LU65 is 44%. In addition, the “HSA Score (MAX)” value in the experiment on LU65 is 44%.

For `CC(C)N1CCC(c2cc3c(-c4ccc(F)c5[nH]ncc45)c(N)c(=O)[nH]c3c3cccnc23)CC1.O=CO` [Compound C136, 3-Amino-4-(7-fluoro-1H-indazol-4-yl)-6-(1-propan-2-ylpiperidin-4-yl)-1H-1,7-phenanthrolin-2-one; formate], the half-maximal inhibitory concentration (IC50) on MYT1 protein [1] is 3.4 nM. For the same molecule, the half-maximal inhibitory concentration (IC50) on MYT1 protein [2] worked out at 8.3 nM. In the experiment with LU65, the “Bliss Score (Max)” value is reported as 45% and the “HSA Score (MAX)” value came to 57%.

The molecule `Nc1c(-c2cccc(O)c2)c2cc(C3CC3)c3ccccc3c2[nH]c1=O` [Compound B3, 3-Amino-6-cyclopropyl-4-(3-hydroxyphenyl)-1H-benzo[h]quinolin-2-one] came in with a half-maximal inhibitory concentration (IC50) at MYT1 protein [1] of 7.3 nM. This molecule also returned a concentration for half-maximal inhibition (IC50) at MYT1 protein [2] of 0.52 nM. In the experiment with LU65, the “Bliss Score (Max)” value came out at 78% and the “HSA Score (MAX)” value amounted to 77%.
